Test results as given in patent publication US11008332B2, “Pharmaceutical composition for preventing or treating aging-related diseases containing decursin derivative as active ingredient” (PRG S&TECH INC., priority 2017, dated 2021).
Where “and” joins values, the source holds several entries; their conditions need not be identical. Equal entries are not always repeated. Blank lines part the entries; values can stand above or below the compound they belong to.

Legend:
Water solubility = assay type: physicochemical
Lmna^wt/G609G mice = assay: Life span and morphology of Lmna^wt/G609G mice; assay type: in vivo, mouse
[1] = Chemical pharmacokinetic (PK) analysis, blood/plasma concentration by LC-MS/MS; assay type: in vivo; settings: for Plasma concentration, Mean: n = 3
Description: For PK analysis, 5 mg/kg of JH4 in 10% DMSO, 5% Tween […] solution was intravenously injected and 10 mg/kg of JH4 in 10% NMP and 90% PEG400 solution was per orally delivered. At the setting time-points, blood concentration of JH4 was determined by LC-MS/MS analysis and the PK analysis for other chemicals was also tested by the similar protocol.

[2] = tested on: Lmna^G609G/G609G, progeria model mouse; settings: intraperitoneal injection (i.p.), previous report; cited from earlier work
HGPS cells [3] = settings: previous report; cited from earlier work
Plasma protein = Plasma protein binding, human; assay type: in vitro ADME
Description: In vitro ADME studies (plasma protein binding, CYP inhibition, microsomal stability, plasma stability and hERG inhibition) were performed by New drug development center though standard protocols.

[4] = molecular target: T1, progerin and Lamin A binding (Homo sapiens, UniProt P02545); assay: Competition assay of WRN-R1 and R2 against progerin and Lamin A binding; settings: bead conjugated GST-progerin with GFP-Lamin A transfected 293 lysate, FIG. 4C
T1 construct: produced by cloning of 100 AA from upstream of the termination codon through PCR; made in house; GFP-Lamin A from transfected 293 cells
T1 sequence (P02545 1-614 isoform P02545-6): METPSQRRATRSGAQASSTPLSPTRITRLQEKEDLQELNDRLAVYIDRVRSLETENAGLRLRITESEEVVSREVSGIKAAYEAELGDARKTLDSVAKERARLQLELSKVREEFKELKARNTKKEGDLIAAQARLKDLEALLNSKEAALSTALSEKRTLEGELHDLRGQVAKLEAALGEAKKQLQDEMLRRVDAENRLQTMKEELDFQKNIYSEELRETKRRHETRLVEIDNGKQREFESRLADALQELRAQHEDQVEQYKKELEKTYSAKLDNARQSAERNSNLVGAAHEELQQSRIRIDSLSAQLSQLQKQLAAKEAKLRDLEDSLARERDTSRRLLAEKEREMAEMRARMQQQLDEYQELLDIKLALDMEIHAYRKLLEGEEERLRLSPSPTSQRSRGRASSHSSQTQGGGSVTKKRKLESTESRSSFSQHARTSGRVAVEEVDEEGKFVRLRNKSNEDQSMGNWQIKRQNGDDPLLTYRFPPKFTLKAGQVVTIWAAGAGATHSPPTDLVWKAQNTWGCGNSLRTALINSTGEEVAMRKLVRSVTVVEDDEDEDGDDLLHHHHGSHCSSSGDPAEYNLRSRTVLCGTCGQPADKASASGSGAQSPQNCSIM
Description: For the competition assay of WRN-R1 and R2 against progerin and Lamin A binding, bead-conjugated GST-progerin was incubated with GFP-Lamin A overexpressed 293 lysate with or without WRN-R1 or R2 recombinant protein.

HGPS cells [5] = assay: Immunofluorescence staining of HGPS cells (nuclear morphology, progerin, H3K9me3); assay type: cell-based, Human
Description: Human fibroblast cells from HGPS patients (AG03198, person; AG03199; person), WS patients (AG06300, person; AG03141, person; AG00780, person) and controls (GM 00038, person) were obtained from the Coriell Cell Repositories (Camden, N.J., USA) and were maintained in EMEM, containing 15% FBS, 2 mM glutamine or HEMEM with 26 mM HEPES without antibiotics.
Cells were seeded on a cover glass and transfected with the indicated vectors.
After fixing with 100% methanol or 1% paraformaldehyde (PFA) for 1 h at 4° C., cells were incubated with blocking buffer (PBS+anti-human-Ab; 1:400) for 1 h.
After washing with PBS twice, cells were incubated with anti-Lamin A/C, Progerin or H3K9Me3 in blocking buffer (1:200) overnight and sequentially with anti-goat Ab-FITC or anti-rabbit Ab-rhodamin in blocking buffer (1:500) for 7 h and mounted, and nucleus was stained with DAPI. Thereafter Immunofluorescence signal was detected by fluorescence microscopy (Zeiss and Logos).
For counting nuclear deformed cell, obtained immunofluorescence images were used. Nuclear membrane showing abnormalities, dependent on Lamin A staining, were counted from randomly selected field. Counted cells were calculated percentage.

progerin = molecular target: T2, progerin (Homo sapiens, UniProt P02545); assay: GST pull-down of bead-conjugated GST WRN-R1/WRN-R2 with GFP-progerin transfected 293 cell lysates; assay type: binding; settings: compared with WRN-R1, FIG. 4B
T2 construct: expressed in transfected cells; host or cells: HEK293
T2 sequence (P02545 1-614 isoform P02545-6): T1 sequence (P02545 1-614 isoform P02545-6)
Description: For the analysis of protein-protein interaction, Glutathione S-transferase (GST) pull-down assay was performed.
To detect the interaction, GST-bead-fused Lamin A-C-terminal region, Progerin-C-terminal region, WRN-R1 region or WRN-R2 region was incubated with GFP tagged Progerin (GFP-Progerin) and Lamin A (GFP-Lamin A) transfected HEK293 cell lysate for 30 min at RT.
After washing once with PBS, precipitated materials were collected and subjected into SDS-PAGE and western blot with anti-GFP and GST.

[6] = tested on: progerin expression in progerin-transfected 293 cells; assay: Progerin expression analysis in progerin-transfected 293 cells (Western blot); assay type: cell-based; settings: 24 hours, FIG. 1D
Description: HEK293 cell line, obtained from ATCC, were maintained in liquid medium (DMEM) containing 10% FBS and 1% antibiotics at 37° C.
Whole-cell lysates were prepared in RIPA.
15 μg of cell extracts were separated by SDS-PAGE and transferred onto a PVDF membrane.
The membrane was incubated for 1 h to overnight at 4° C. with primary antibody, followed by reaction with a secondary antibody at room temperature for 1 h.
Peroxidase activity was detected by chemiluminescence with ECL kit (Intron, Seoul, Korea) as recommended by its manufacturer.

hERG ion channel = hERG ion channel (Homo sapiens, UniProt Q12809); assay: hERG inhibition (in vitro ADME); settings: in vitro ADME analysis, FIG. 2B
[7] = Lmna^wt/G609G mice, injection started from 43 weeks old, FIG. 2E
[8] = intravenous injection 5 mg/kg, 1 hr
[9] = intravenous injection 5 mg/kg, 2 hr
[10] = intravenous injection 5 mg/kg, 8 hr
[11] = intravenous injection 5 mg/kg, 24 hr
[12] = oral administration 10 mg/kg, 0.08 hr
[13] = oral administration 10 mg/kg, 0.25 hr
[14] = oral administration 10 mg/kg, 0.5 hr
[15] = oral administration 10 mg/kg, 1 hr
[16] = oral administration 10 mg/kg, 2 hr
[17] = oral administration 10 mg/kg, 4 hr
[18] = oral administration 10 mg/kg, 8 hr
[19] = oral administration 10 mg/kg, 24 hr
[20] = recombinant peptide delivered into HGPS cells with protein delivery agent, 24 hr, FIG. 4D

Sequence of hERG ion channel (Q12809 whole entry): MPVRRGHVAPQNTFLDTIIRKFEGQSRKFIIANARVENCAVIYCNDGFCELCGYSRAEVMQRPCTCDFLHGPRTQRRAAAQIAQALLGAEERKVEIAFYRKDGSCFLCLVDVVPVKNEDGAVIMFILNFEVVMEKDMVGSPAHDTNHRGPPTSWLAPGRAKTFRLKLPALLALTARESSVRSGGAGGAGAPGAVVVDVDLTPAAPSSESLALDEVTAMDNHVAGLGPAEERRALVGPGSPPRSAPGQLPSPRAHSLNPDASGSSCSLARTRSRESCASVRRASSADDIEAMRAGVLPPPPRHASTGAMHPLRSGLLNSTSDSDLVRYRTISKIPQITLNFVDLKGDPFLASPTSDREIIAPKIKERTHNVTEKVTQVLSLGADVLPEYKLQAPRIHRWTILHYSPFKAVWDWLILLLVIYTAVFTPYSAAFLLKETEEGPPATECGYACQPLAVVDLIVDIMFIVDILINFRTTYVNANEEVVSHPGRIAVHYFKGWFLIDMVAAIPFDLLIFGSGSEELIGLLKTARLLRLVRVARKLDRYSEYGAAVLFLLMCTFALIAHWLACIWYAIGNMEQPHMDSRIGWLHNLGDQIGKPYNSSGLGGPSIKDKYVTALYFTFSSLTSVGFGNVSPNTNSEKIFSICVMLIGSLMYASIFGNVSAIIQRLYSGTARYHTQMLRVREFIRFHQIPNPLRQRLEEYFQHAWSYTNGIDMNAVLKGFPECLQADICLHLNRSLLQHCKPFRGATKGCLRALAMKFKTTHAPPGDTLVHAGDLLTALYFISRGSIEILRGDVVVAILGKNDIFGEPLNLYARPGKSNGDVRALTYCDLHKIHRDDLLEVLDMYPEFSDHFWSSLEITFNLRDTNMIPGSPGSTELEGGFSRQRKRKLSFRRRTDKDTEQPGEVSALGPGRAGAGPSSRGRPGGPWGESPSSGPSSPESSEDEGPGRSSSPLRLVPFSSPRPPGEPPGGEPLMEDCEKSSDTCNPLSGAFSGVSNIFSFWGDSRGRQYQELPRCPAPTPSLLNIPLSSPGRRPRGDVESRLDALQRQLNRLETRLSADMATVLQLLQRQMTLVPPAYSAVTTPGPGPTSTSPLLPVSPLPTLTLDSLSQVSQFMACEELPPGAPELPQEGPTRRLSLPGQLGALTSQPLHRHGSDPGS

Compound: CC1(C)Oc2cc3oc(=O)ccc3cc2C[C@@H]1OC(=O)/C=C/c1cccnc1 [JH4]
water solubility (Water solubility): very low water solubility
prolongation of life (Lmna^wt/G609G mice; Lamn^wt/G609G model): about 10 weeks
average life span (Lmna^wt/G609G mice; [7]): 54 weeks
maximum (max) life span (Lmna^wt/G609G mice; [7]): 56 weeks
disappearance after PO treatment ([1]; PO treatment, FIG. 1A): very rapidly disappeared by PO treatment
Plasma concentration, Mean ([1]; intravenous injection 5 mg/kg, 0.08 hr): 4.7 ng/mL
Plasma concentration, individual subjects ([1]; intravenous injection 5 mg/kg, 0.08 hr, 5 mg/kg): 3.3 ng/mL and 4.6 ng/mL and 6.3 ng/mL
Plasma concentration, Mean ([1]; intravenous injection 5 mg/kg, 0.25 hr): 1.5 ng/mL
Plasma concentration, individual subjects ([1]; intravenous injection 5 mg/kg, 0.25 hr, 5 mg/kg): 1.7 ng/mL and 1.1 ng/mL and 1.8 ng/mL
Plasma concentration, Mean ([1]; intravenous injection 5 mg/kg, 0.5 hr): 0.6 ng/mL
Plasma concentration, individual subjects ([1]; intravenous injection 5 mg/kg, 0.5 hr, 5 mg/kg): 0.5 ng/ml (2×) and 0.7 ng/ml
Plasma concentration, individual subjects [1, 8]: BQL (Below Quantifiable Limit (<1 ng/ml))
Plasma concentration, Mean [1, 8]: BQL (Below Quantifiable Limit (<1 ng/ml))
Plasma concentration, individual subjects [1, 9]: BQL (Below Quantifiable Limit (<1 ng/ml))
Plasma concentration, Mean [1, 9]: BQL (Below Quantifiable Limit (<1 ng/ml))
Plasma concentration, Mean ([1]; intravenous injection 5 mg/kg, 4 hr): BQL (Below Quantifiable Limit (<1 ng/ml))
Plasma concentration, individual subjects ([1]; intravenous injection 5 mg/kg, 4 hr, 5 mg/kg): BQL (Below Quantifiable Limit (<1 ng/ml)) (2×) and BOL
Plasma concentration, individual subjects [1, 10]: BQL (Below Quantifiable Limit (<1 ng/ml))
Plasma concentration, Mean [1, 10]: BQL (Below Quantifiable Limit (<1 ng/ml))
Plasma concentration, individual subjects [1, 11]: BQL (Below Quantifiable Limit (<1 ng/ml))
Plasma concentration, Mean [1, 11]: BQL (Below Quantifiable Limit (<1 ng/ml))
half-life in vivo ([1]; intravenously injected and orally administrated): very short half-life
Plasma concentration, individual subjects [1, 12]: BQL (Below Quantifiable Limit (<1 ng/ml))
Plasma concentration, Mean [1, 12]: BQL (Below Quantifiable Limit (<1 ng/ml))
Plasma concentration, individual subjects [1, 13]: BQL (Below Quantifiable Limit (<1 ng/ml))
Plasma concentration, Mean [1, 13]: BQL (Below Quantifiable Limit (<1 ng/ml))
Plasma concentration, individual subjects [1, 14]: BQL (Below Quantifiable Limit (<1 ng/ml))
Plasma concentration, Mean [1, 14]: BQL (Below Quantifiable Limit (<1 ng/ml))
Plasma concentration, individual subjects [1, 15]: BQL (Below Quantifiable Limit (<1 ng/ml))
Plasma concentration, Mean [1, 15]: BQL (Below Quantifiable Limit (<1 ng/ml))
Plasma concentration, individual subjects [1, 16]: BQL (Below Quantifiable Limit (<1 ng/ml))
Plasma concentration, Mean [1, 16]: BQL (Below Quantifiable Limit (<1 ng/ml))
Plasma concentration, individual subjects [1, 17]: BQL (Below Quantifiable Limit (<1 ng/ml))
Plasma concentration, Mean [1, 17]: BQL (Below Quantifiable Limit (<1 ng/ml))
Plasma concentration, individual subjects [1, 18]: BQL (Below Quantifiable Limit (<1 ng/ml))
Plasma concentration, Mean [1, 18]: BQL (Below Quantifiable Limit (<1 ng/ml))
Plasma concentration, individual subjects [1, 19]: BQL (Below Quantifiable Limit (<1 ng/ml))
Plasma concentration, Mean [1, 19]: BQL (Below Quantifiable Limit (<1 ng/ml))
prolongation of progerin model mouse lifespan [2]: about 4 weeks
aging-related markers in HGPS cells (HGPS cells [3]): restored aging-related markers such as p16/INK4A, DNA-PK and H3K9me3 expression
nuclear deformation of HGPS cells (HGPS cells [3]): improved the nuclear deformation of HGPS cells

Plasma protein binding Human (% Bound) (Plasma protein): 62.1 % Bound
Compound: C[C@@H]1C[C@H]2[C@@H]3CCC4=CC(=O)C=C[C@]4(C)[C@@]3(F)[C@@H](O)C[C@]2(C)[C@@]1(O)C(=O)CO [Dexamethasone]

binding to progerin (progerin): strongly binds to progerin
Compound: WRN-R2: recombinant WRN-R2 region (hWRN 424-476), duplicated peptide HLSPNDNENDTSYVIESDEDELEMEMLK x2
blocking of interaction of progerin and Lamin A [4]: blocks the interaction of progerin and Lamin A
H3K9me3 expression in HGPS cells (HGPS cells [5]; [20]): H3K9me3 expression was improved
nuclear morphology of HGPS cells (HGPS cells [5]; [20]): nuclear morphology was normalized

bioavailability (B.A.) ([1]; PK analysis, FIG. 2A): 70%
PK profile ([1]; in vivo PK analysis, FIG. 2A): proper PK profile
Compound: CC1(C)Oc2cc3oc(=O)ccc3cc2CC1OC(=O)N/C=C/c1cccnc1 (stereo not shown) [JH010]
nuclear abnormality of HGPS cells (HGPS cells [5]; HGPS cells incubated 48 hr, FIG. 1E): improved nuclear abnormality of HGPS cells
H3K9me3 expression in HGPS cells (HGPS cells [5]; immunostaining, FIG. 1F): induced H3K9me3 expression
progerin expression [6]: inhibiting progerin expression
hERG ion channel inhibition (hERG ion channel): hERG ion channel inhibition of the JH010 compound was confirmed
